According to publication doi:10.1101/2020.03.04.976639v2 (biorxiv, 2020):

Key:
[1] = target: T1, PaThiL (P. aeruginosa thiamine monophosphate kinase, ThiL) (Pseudomonas aeruginosa, UniProt Q9HWX7); experiment: luminescent kinase assay; format: biochemical
T1 sequence (Q9HWX7 1-322): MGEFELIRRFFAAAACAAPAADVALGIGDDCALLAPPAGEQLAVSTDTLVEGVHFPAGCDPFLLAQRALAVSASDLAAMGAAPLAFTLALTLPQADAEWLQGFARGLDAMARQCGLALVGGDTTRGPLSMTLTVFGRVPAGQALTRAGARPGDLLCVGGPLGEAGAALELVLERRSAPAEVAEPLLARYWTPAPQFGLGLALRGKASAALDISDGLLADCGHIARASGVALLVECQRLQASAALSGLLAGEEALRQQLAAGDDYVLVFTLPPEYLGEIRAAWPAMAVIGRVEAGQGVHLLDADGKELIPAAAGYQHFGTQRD

[2] = target: T1, PaThiL (P. aeruginosa thiamine monophosphate kinase, ThiL); experiment: luminescent kinase assay; format: biochemical; conditions: random Bi-Bi fit; TMP 0.78-50 µM; 50 mM Tris-HCl pH 8.0, 5 mM MgCl2, 350 mM KCl

Question: `O=C(O)Cc1c[nH]c2ccc(O)cc12` [5-hydroxyindolacetic acid] was tested. Which Ki [1] did it give?
Answer: 114 ± 27 µM

Question: How did the Km [2] turn out when `Nc1ncnc2c1ncn2[C@@H]1O[C@H](COP(=O)(O)OP(=O)(O)OP(=O)(O)O)[C@@H](O)[C@H]1O` [ATP] was run?
Answer: 111 ± 8 µM
